Among the test systems are SF-268; U-251; SR; HL-60; HT-29; SK-MEL-2; SK-OV-3; M14; UO-31; SF-539; SNB-19; SK-MEL-28; OVCAR-5; ACHN; IGROV-1; UACC-257; SF-295; A549; SW-620; NCI-H460.
Common to all, as to assay: NCI anticancer screen, dose series, 48 h

Molecules are shown by their SMILES.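 Cultured in 96-well plates, cells were exposed to test compound for 48 hours across five concentrations. GI50 is the concentration that inhibits growth by half.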 Calls of active or inactive are those of the source. Cut-off read from the data, not from the text of the source: active = GI50 up to about 1.1 µM and inactive = higher.

With `Cc1c(N)nc([C@H](CC(N)=O)NC[C@H](N)C(N)=O)nc1C(=O)N[C@H](C(=O)N[C@H](C)[C@@H](O)CC(=O)N[C@H](C(=O)NC(O[C@@H]1O[C@@H](C)[C@@H](N)[C@@H](O)[C@H]1O)C(O)c1nc(-c2nc(C(=O)NCCCCN)cs2)cs1)[C@@H](C)O)[C@@H](O[C@@H]1O[C@@H](CO)[C@@H](O)[C@H](O)[C@@H]1O[C@H]1O[C@H](CO)[C@@H](O)[C@H](OC(N)=O)[C@@H]1O)c1c[nH]cn1` (stereo partly specified), the GI50 with SF-268 is 16.1 µM (inactive); in the test with U-251, > 50 µM (inactive); in the test with SR, 0.0316 µM (active); in the test with HL-60, > 44.2 µM (inactive); with HT-29, > 50 µM (inactive); with SK-MEL-2 it was > 50 µM (inactive). For the same compound, the GI50 in the test with SK-OV-3 was > 50 µM (inactive); in the test on M14, > 36.9 µM (inactive); with UO-31 it was 3.78 µM (inactive); in the test with SF-539, 0.311 µM (active); with SNB-19, > 50 µM (inactive); in the test on SK-MEL-28, > 50 µM (inactive). Besides, the GI50 is > 50 µM (inactive) with OVCAR-5; 0.223 µM (active) with ACHN; 16 µM (inactive) in the test with IGROV-1; > 50 µM (inactive) in the test on UACC-257; 1.14 µM (inactive) with SF-295; 18.7 µM (inactive) with A549. In addition, the GI50 in the test with SW-620 is > 50 µM (inactive); in the test on NCI-H460, 0.145 µM (active).
With `Cc1[nH]c(-c2ccccc2)c(O)c1C(=O)OC1CC(C)CCC1C(C)C` (stereo unspecified), the GI50 in the test with SF-268 was 15.3 µM (inactive); in the test on U-251, 15.5 µM (inactive); in the test with SR, 8.51 µM (inactive); with HL-60 it was 16.4 µM (inactive); with HT-29, 14.4 µM (inactive); in the test on SK-MEL-2, 14.3 µM (inactive). Moreover, the GI50 is 15.3 µM (inactive) in the test with SK-OV-3; 15.6 µM (inactive) with M14; 13.3 µM (inactive) in the test with UO-31; 16.2 µM (inactive) in the test on SF-539; 17.3 µM (inactive) in the test with SNB-19; 16.3 µM (inactive) in the test with SK-MEL-28. The GI50 with OVCAR-5 was 14.2 µM (inactive); in the test on ACHN it was 16.4 µM (inactive); with IGROV-1, 15.6 µM (inactive); in the test with UACC-257, 15.7 µM (inactive); in the test on SF-295, 12.4 µM (inactive); in the test with A549, 13.4 µM (inactive). Also, the results for the GI50 in the test with SW-620 and with NCI-H460 were 15.7 µM (inactive) and 15.3 µM (inactive), respectively.
As to `O=[N+]([O-])/C(C(Cl)=C(Cl)Cl)=C1\Nc2ccccc2O1`, the GI50 in the test with SF-268 is > 100 µM (inactive); with U-251 it was > 100 µM (inactive); with SR it was 24.9 µM (inactive); in the test with HL-60, 28.8 µM (inactive); with HT-29, > 100 µM (inactive); with SK-MEL-2, > 100 µM (inactive). In addition, the GI50 in the test with SK-OV-3 was > 100 µM (inactive); in the test with M14, > 100 µM (inactive); in the test with UO-31 it was 14.5 µM (inactive); with SF-539, 19.9 µM (inactive); in the test on SNB-19, > 100 µM (inactive); in the test with SK-MEL-28 it was > 100 µM (inactive). Besides, the GI50 with OVCAR-5 was > 100 µM (inactive); in the test with ACHN, 35.8 µM (inactive); in the test with IGROV-1 it was 43.7 µM (inactive); with UACC-257, > 100 µM (inactive); in the test with SF-295, > 100 µM (inactive); in the test on A549, 37.7 µM (inactive). Besides, the GI50 in the test with SW-620 and in the test with NCI-H460 was > 100 µM (inactive) in each case.
For the compound `Nc1nc(Cl)cc(NCCCCO)n1`, the GI50 in the test with SF-268, in the test on U-251, in the test with SR, with HL-60, in the test on HT-29 and in the test with SK-MEL-2 was > 100 µM (inactive) in each case. Also, the GI50 with SK-OV-3 was > 100 µM (inactive); in the test with M14 it was > 10 µM (inactive); with UO-31 it was > 100 µM (inactive); in the test on SF-539 it was > 100 µM (inactive); in the test on SNB-19, > 100 µM (inactive); with SK-MEL-28 it was > 100 µM (inactive). For the same compound, the GI50 with OVCAR-5, in the test on ACHN, in the test with IGROV-1, in the test with UACC-257, in the test with SF-295 and with A549 was > 100 µM (inactive) in each case. Moreover, the GI50 in the test with SW-620 and in the test with NCI-H460 was > 100 µM (inactive) throughout.
In the case of `Cc1ccc(NC(=O)C2C(=O)N(c3ccc(C)c(C)c3)C(=O)/C2=N\NC(N)=S)cc1C` (stereo unspecified), the GI50 with SF-268 was 61.4 µM (inactive); in the test with U-251 it was 58.3 µM (inactive); in the test on SR, > 100 µM (inactive); with HL-60 it was > 100 µM (inactive); with HT-29, 78 µM (inactive); with SK-MEL-2, > 100 µM (inactive). Further, the GI50 was 45 µM (inactive) with SK-OV-3; > 100 µM (inactive) in the test with M14; 56.8 µM (inactive) in the test with UO-31; > 100 µM (inactive) in the test on SF-539; 29.6 µM (inactive) in the test with SNB-19; > 100 µM (inactive) in the test with SK-MEL-28. Further, the GI50 is > 100 µM (inactive) in the test with ACHN; 96.4 µM (inactive) in the test on IGROV-1; > 100 µM (inactive) in the test with UACC-257; > 100 µM (inactive) in the test on SF-295; > 100 µM (inactive) in the test with A549; > 100 µM (inactive) in the test with SW-620.
For the compound `CON(C)c1nc(N)c(C#N)c(C#N)c1C#N`, the GI50 was > 10 µM (inactive) with SF-268; > 10 µM (inactive) with U-251; > 10 µM (inactive) with SR; 4.16 µM (inactive) in the test on HL-60; > 10 µM (inactive) in the test on HT-29; > 10 µM (inactive) in the test with SK-MEL-2. Besides, the GI50 in the test with SK-OV-3, in the test with M14, with UO-31, with SF-539, with SNB-19 and in the test on SK-MEL-28 was > 10 µM (inactive) in each case. The GI50 in the test with OVCAR-5, in the test with ACHN, in the test on IGROV-1, with SF-295, in the test with A549 and in the test with SW-620 was > 10 µM (inactive) each time. Besides, in the test with NCI-H460, the GI50 is > 10 µM (inactive).
Regarding `CCC1NC(/N=N/c2ccc([N+](=O)[O-])cc2)(P(=O)(OC(C)C)OC(C)C)OC1=O` (stereo unspecified), the GI50 in the test with SF-268, with U-251, with SR, in the test with HL-60, with HT-29 and in the test with SK-MEL-2 was > 100 µM (inactive) each time. The GI50 with SK-OV-3, in the test with M14, with UO-31, in the test with SF-539, with SNB-19 and with SK-MEL-28 was > 100 µM (inactive) throughout. The GI50 with OVCAR-5, in the test on ACHN, in the test on IGROV-1, in the test with UACC-257, in the test on SF-295 and in the test with A549 was > 100 µM (inactive) each time. Further, the GI50 in the test with SW-620 was > 100 µM (inactive).

Values taken from ChEMBL document CHEMBL1201862, “PubChem BioAssay data set” (2004).
